Assay results from ChEMBL document CHEMBL1201862, “PubChem BioAssay data set” (2004).
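Briefly, cells in 96-well plates were exposed to five compound concentrations for 48 h, and endpoints were estimated by linear interpolation. Here, GI50 denotes the concentration required for 50% inhibition of growth.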 Active and inactive are the calls of the source. Rule as the data show it: active = GI50 up to about 1.1 µM and inactive = higher.

Legend:
Assay in all cases: growth of human tumour cells (NCI), 48 h
786-0 = tested on: 786-0
A498 = tested on: A498
A549 = tested on: A549
ACHN = tested on: ACHN
CAKI-1 = tested on: CAKI-1
CCRF-CEM = tested on: CCRF-CEM
COLO 205 = tested on: COLO 205
DLD-1 = tested on: DLD-1
DMS-114 = tested on: DMS-114
DMS-273 = tested on: DMS-273
EKVX = tested on: EKVX
HCC 2998 = tested on: HCC 2998
HCT-116 = tested on: HCT-116
HCT-15 = tested on: HCT-15
HL-60 = tested on: HL-60
HOP-18 = tested on: HOP-18
HOP-62 = tested on: HOP-62
HOP-92 = tested on: HOP-92
HT-29 = tested on: HT-29
IGROV-1 = tested on: IGROV-1
K562 = tested on: K562
KM-20L2 = tested on: KM-20L2
KM12 = tested on: KM12
LOX IMVI = tested on: LOX IMVI
LXFL 529 = tested on: LXFL 529
M14 = tested on: M14
M19-MEL = tested on: M19-MEL
MOLT-4 = tested on: MOLT-4
Malme-3M = tested on: Malme-3M
NCI-H226 = tested on: NCI-H226
NCI-H23 = tested on: NCI-H23
NCI-H460 = tested on: NCI-H460
NCI-H522 = tested on: NCI-H522
OVCAR-3 = tested on: OVCAR-3
OVCAR-4 = tested on: OVCAR-4
OVCAR-5 = tested on: OVCAR-5
OVCAR-8 = tested on: OVCAR-8
RXF 393 = tested on: RXF 393
SF-268 = tested on: SF-268
SF-295 = tested on: SF-295
SF-539 = tested on: SF-539
SK-MEL-28 = tested on: SK-MEL-28
SK-MEL-2 = tested on: SK-MEL-2
SK-MEL-5 = tested on: SK-MEL-5
SK-OV-3 = tested on: SK-OV-3
SN12C = tested on: SN12C
SNB-19 = tested on: SNB-19
SNB-75 = tested on: SNB-75
SNB-78 = tested on: SNB-78
SR = tested on: SR
SW-620 = tested on: SW-620
TK-10 = tested on: TK-10
U-251 = tested on: U-251
UACC-257 = tested on: UACC-257
UACC-62 = tested on: UACC-62
UO-31 = tested on: UO-31
XF498 = tested on: XF498
RPMI-8226 = tested on: RPMI-8226

In the case of `CC(=O)OC(OC(C)=O)c1ncccc1C(=O)OC(C)C`, the GI50 (786-0) is reported as > 100 µM (inactive), the GI50 (A498) is reported as > 100 µM (inactive) and the GI50 (A549) is reported as > 100 µM (inactive). For the same compound, the GI50 (ACHN) was > 100 µM (inactive), the GI50 (CAKI-1) was > 100 µM (inactive) and the GI50 (CCRF-CEM) was 7.26 µM (inactive). For the same compound, the GI50 (COLO 205) was 47.4 µM (inactive), the GI50 (DLD-1) was 31.2 µM (inactive) and the GI50 (DMS-114) was > 100 µM (inactive). The GI50 (DMS-273) was 31.3 µM (inactive), the GI50 (EKVX) was > 100 µM (inactive) and the GI50 (HCC 2998) was 42.6 µM (inactive). For the same compound, the GI50 (HCT-116) was 57.8 µM (inactive), the GI50 (HCT-15) was 33.8 µM and the GI50 (HL-60) was 8.65 µM (inactive). For the same compound, the GI50 (HOP-18) was > 100 µM (inactive), the GI50 (HOP-62) was > 100 µM (inactive) and the GI50 (HOP-92) was 18.2 µM (inactive). For the same compound, the GI50 (HT-29) was 33.3 µM (inactive), the GI50 (IGROV-1) was > 100 µM (inactive) and the GI50 (K562) was 18.9 µM (inactive). For the same compound, the GI50 (KM-20L2) was 39.6 µM (inactive), the GI50 (KM12) was 63.7 µM (inactive) and the GI50 (LOX IMVI) was 20.9 µM (inactive). For the same compound, the GI50 (LXFL 529) was 78.5 µM (inactive), the GI50 (M14) was > 100 µM (inactive) and the GI50 (M19-MEL) was 30.1 µM (inactive). For the same compound, the GI50 (MOLT-4) was 35.1 µM (inactive), the GI50 (Malme-3M) was > 100 µM (inactive) and the GI50 (NCI-H226) was > 100 µM (inactive). The GI50 (NCI-H23) was 56.1 µM (inactive), the GI50 (NCI-H460) was 11.3 µM (inactive) and the GI50 (NCI-H522) was 75.7 µM (inactive). For the same compound, the GI50 (OVCAR-3) was > 100 µM (inactive), the GI50 (OVCAR-4) was > 100 µM (inactive) and the GI50 (OVCAR-5) was > 100 µM (inactive). For the same compound, the GI50 (OVCAR-8) was > 100 µM (inactive), the GI50 (RXF 393) was 39.8 µM (inactive) and the GI50 (SF-268) was 13.7 µM (inactive). The GI50 (SF-295) was 42.4 µM (inactive), the GI50 (SF-539) was 56 µM (inactive) and the GI50 (SK-MEL-28) was 1.18 µM (inactive). For the same compound, the GI50 (SK-MEL-2) was > 100 µM (inactive), the GI50 (SK-MEL-5) was 38.2 µM (inactive) and the GI50 (SK-OV-3) was > 100 µM (inactive). The GI50 (SN12C) was > 100 µM (inactive), the GI50 (SNB-19) was > 100 µM (inactive) and the GI50 (SNB-75) was 81.8 µM (inactive). For the same compound, the GI50 (SNB-78) was > 100 µM (inactive), the GI50 (SR) was 15.1 µM (inactive) and the GI50 (SW-620) was > 100 µM (inactive). For the same compound, the GI50 (TK-10) was > 100 µM (inactive), the GI50 (U-251) was 18.3 µM (inactive) and the GI50 (UACC-257) was > 100 µM (inactive). For the same compound, the GI50 (UACC-62) was > 100 µM (inactive), the GI50 (UO-31) was 61.7 µM (inactive) and the GI50 (XF498) was > 100 µM (inactive).
With `CSc1cccc(-n2c3nc(=O)n(C)c(=O)c-3nc3ccccc32)c1` the GI50 (786-0) was 4.92 µM (inactive), the GI50 (A498) was 12.6 µM (inactive) and the GI50 (A549) was 2.65 µM (inactive). For the same compound, the GI50 (ACHN) was 0.735 µM (active), the GI50 (CAKI-1) was 3.91 µM (inactive) and the GI50 (CCRF-CEM) was 11 µM (inactive). The GI50 (COLO 205) was 2.94 µM (inactive), the GI50 (DLD-1) was 14 µM (inactive) and the GI50 (DMS-114) was 3.27 µM (inactive). The GI50 (DMS-273) was 1.66 µM (inactive), the GI50 (EKVX) was 19.3 µM (inactive) and the GI50 (HCC 2998) was 4.03 µM (inactive). The GI50 (HCT-116) was 7.29 µM (inactive), the GI50 (HCT-15) was 5.02 µM and the GI50 (HL-60) was 3.34 µM (inactive). For the same compound, the GI50 (HOP-18) was 13.2 µM (inactive), the GI50 (HOP-62) was 18.1 µM (inactive) and the GI50 (HOP-92) was 9.33 µM (inactive). The GI50 (HT-29) was 2.51 µM (inactive), the GI50 (IGROV-1) was 13.6 µM (inactive) and the GI50 (K562) was 12.5 µM (inactive). For the same compound, the GI50 (KM-20L2) was 3.54 µM (inactive), the GI50 (KM12) was 12.9 µM (inactive) and the GI50 (LXFL 529) was 13.3 µM (inactive). For the same compound, the GI50 (M14) was 2.7 µM (inactive), the GI50 (M19-MEL) was 2.07 µM (inactive) and the GI50 (MOLT-4) was 12 µM (inactive). The GI50 (Malme-3M) was 3.04 µM (inactive), the GI50 (NCI-H226) was 11.8 µM (inactive) and the GI50 (NCI-H23) was 4.35 µM (inactive). The GI50 (NCI-H460) was 2.4 µM (inactive), the GI50 (NCI-H522) was 14.7 µM (inactive) and the GI50 (OVCAR-3) was 2.26 µM (inactive). For the same compound, the GI50 (OVCAR-4) was 9.53 µM (inactive), the GI50 (OVCAR-5) was 18 µM (inactive) and the GI50 (OVCAR-8) was 8.83 µM (inactive). The GI50 (RPMI-8226) was 5.77 µM (inactive), the GI50 (SF-268) was 16.6 µM (inactive) and the GI50 (SF-295) was 10.8 µM (inactive). For the same compound, the GI50 (SF-539) was 2.16 µM (inactive), the GI50 (SK-MEL-28) was 17.4 µM (inactive) and the GI50 (SK-MEL-2) was 13 µM (inactive). For the same compound, the GI50 (SK-MEL-5) was 1.25 µM (inactive), the GI50 (SK-OV-3) was 35.3 µM (inactive) and the GI50 (SN12C) was 5.38 µM (inactive). For the same compound, the GI50 (SNB-19) was 12.9 µM (inactive), the GI50 (SNB-75) was 14.5 µM (inactive) and the GI50 (SNB-78) was 19.4 µM (inactive). The GI50 (SW-620) was 3.78 µM (inactive), the GI50 (TK-10) was 21.8 µM (inactive) and the GI50 (U-251) was 7.98 µM (inactive). For the same compound, the GI50 (UACC-257) was 4.94 µM (inactive), the GI50 (UACC-62) was 1.95 µM (inactive) and the GI50 (UO-31) was 17.4 µM (inactive). For the same compound, the GI50 (XF498) was 3.51 µM (inactive).
